Data reported in PubChem BioAssay AID2060501 (Molecular Pharmacology Branch, DTP, NCI, 2025).

Test system: 282377-053-R-J1-PDC complex spheroids, viability
Experiment: Anticancer human tumor 282377-053-R-J1-PDC patient-derived colon adenocarcinoma cell line growth inhibition [GQUAD]
Details: for IC50: curve of first compound; for viability, T/C: stronger effect = lower value
Source text: DNA G-quadruplex Stabilizer Agents in Combinations in Complex Spheroids
A high-throughput screen of multi-cell type tumor spheroids was designed to identify active combinations of DNA G-quadruplex stabilizer agents and targeted small molecules. Complex spheroids include a stromal component modeled by human endothelial cells (HUVEC) and fibroblasts modeled by human mesenchymal stem cells (MSCs). The concentration ranges selected for each drug and investigational agent were based upon clinically achievable concentrations if the clinical Cmax of the agent was known.
Compounds. The drugs and investigational agents: pidnarulex (CX-5461; NSC782164), APTO-253 (NSC789042), BRACO-19 (NSC847499), peposertib (NSC802822), ceralasertib (NSC780249), elimusertib (NSC800525), camonsertib (NSC841442), AZD-1390 (NSC803789), olaparib (NSC753686), talazoparib (NSC767125), ART-558 (NSC835418), sotorasib (NSC818433), MRTX-1133 (NSC836407), SN-38 (NSC673596), topotecan (NSC609699), etoposide (NSC141540), doxorubicin (NSC123127), gemcitabine (NSC613327), 5-fluorouracil (NSC19893), paclitaxel (NSC125973), vemurafenib (NSC761431), panobinostat (NSC761190), R-306465 (JNJ-16241199; NSC773264), adavosertib (NSC754352), TP-3654 (NSC805149), carboplatin (NSC241240), KSQ-4279 (NSC840948), and staurosporine (NSC755774) were obtained from the National Cancer Institute (NCI) Developmental Therapeutics Program Chemical Repository (34). The FDA-approved anticancer drug set is available from the NCI Developmental Therapeutics Program. […] The stock solutions were prepared in dimethyl sulfoxide (DMSO, Sigma-Aldrich, St. Louis, MO, cat. D2650) at 800-fold the tested concentration and stored at -70 degrees C prior to their use. All drugs and investigational agents were tested over a range starting from a high concentration at or near the clinical Cmax and decreasing in half-log increments. If the clinical Cmax for an agent had not been determined, the highest concentration tested was 10 microM.
2.3 Cell Culture. All cells were maintained in an incubator at 37 degrees C and 5% CO2 with 95% humidity. The PDC lines were cultured according to standard operating procedures established by the NCI PDMR. All PDCs were thawed and cultured in Matrigel-coated flasks prepared with a working solution of 1X Ham's F-12 nutrient mix, without supplementation (Invitrogen, cat. 11765054), 100 U/mL penicillin-streptomycin (Invitrogen, cat. 15140122), and 2.5% Matrigel (Corning Inc., cat. 354248) for the first three passages. The 857933-349-R-J2-PDC line was cultured in 6C/Colon 1B media, which includes advanced DMEM/F-12 (Thermo Fisher Scientific, cat. 12634028), 10 mM HEPES (Thermo Fisher Scientific, cat. 15630080), 1X GlutaMAX supplement (Thermo Fisher Scientific, cat. 35050061), 0.1 mg/mL primocin (InvivoGen, cat. ant-pm-2), 10% defined fetal bovine serum, heat inactivated (HyClone Laboratories Inc., cat. SH30070.03HI), 50% L-WRN conditioned media (ATCC, cat. CRL-3276), 1.25 mM N-Acetyl-L-cysteine (Sigma-Aldrich, cat. A9165), 10 mM nicotinamide (Sigma-Aldrich, cat. N0636), 1X B-27 supplement (Thermo Fisher Scientific, cat. 17504044), 1X N-2 supplement (Thermo Fisher Scientific, cat. 17502048), 10 microM Y-27632 dihydrochloride (Tocris Bioscience, cat. 1254), and 50 ng/mL human EGF recombinant protein (Thermo Fisher Scientific, cat. PHG0311). The 485176-168-R4-J1-PDC line was cultured in Panc media, which includes all 6C/Colon 1B media components plus 100 ng/mL human FGF-10 (Thermo Fisher Scientific, cat. 100-26), 500 nM SB-431542 (Selleckchem, cat. S1067), and gastrin (Tocris, cat. 3006).
[…]
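Further: spheroids exposed to compounds for 7 days before readout.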
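Wherever viability, T/C is given: percent of vehicle DMSO control viability with 100% = untreated-like growth.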

Question: Which IC50 (second compound 0.0316 µM) does the source give for `O=c1[nH]cc(F)c(=O)[nH]1` + Cc1[nH]c2ccc(F)cc2c1-c1nc2c3cccnc3c3ncccc3c2[nH]1 here?
Answer: > 10 µM

Question: And the IC50 (second compound 0.1 µM)?
Answer: > 10 µM

Question: What about the IC50 (second compound 0.316 µM) of the same compound?
Answer: > 10 µM

Question: And the IC50 (second compound 1 µM)?
Answer: > 10 µM

Question: What about the IC50 (second compound 3.16 µM) of the same compound?
Answer: > 10 µM

Question: What about the IC50 (second compound 10 µM) of the same compound?
Answer: < 0.0316 µM

Question: And the viability, T/C (second compound 0.0316 µM, first compound 0.0316 µM)?
Answer: 92.8%

Question: And the viability, T/C (second compound 0.0316 µM, first compound 0.1 µM)?
Answer: 104%

Question: And the viability, T/C (second compound 0.0316 µM, first compound 0.316 µM)?
Answer: 126%

Question: And the viability, T/C (second compound 0.0316 µM, first compound 1 µM)?
Answer: 88.8%

Question: What about the viability, T/C (second compound 0.0316 µM, first compound 3.16 µM) of the same compound?
Answer: 78.2%

Question: What about the viability, T/C (second compound 0.0316 µM, first compound 10 µM) of the same compound?
Answer: 74%

Question: And the viability, T/C (second compound 0.1 µM, first compound 0.0316 µM)?
Answer: 110%

Question: And the viability, T/C (second compound 0.1 µM, first compound 0.1 µM)?
Answer: 111%

Question: What about the viability, T/C (second compound 0.1 µM, first compound 0.316 µM) of the same compound?
Answer: 114%

Question: What about the viability, T/C (second compound 0.1 µM, first compound 1 µM) of the same compound?
Answer: 87.5%

Question: And the viability, T/C (second compound 0.1 µM, first compound 3.16 µM)?
Answer: 84.1%

Question: What about the viability, T/C (second compound 0.1 µM, first compound 10 µM) of the same compound?
Answer: 82%

Question: What about the viability, T/C (second compound 0.316 µM, first compound 0.0316 µM) of the same compound?
Answer: 115%

Question: What about the viability, T/C (second compound 0.316 µM, first compound 0.1 µM) of the same compound?
Answer: 106%

Question: And the viability, T/C (second compound 0.316 µM, first compound 0.316 µM)?
Answer: 93.7%

Question: What about the viability, T/C (second compound 0.316 µM, first compound 1 µM) of the same compound?
Answer: 95.1%

Question: And the viability, T/C (second compound 0.316 µM, first compound 3.16 µM)?
Answer: 75.8%

Question: What about the viability, T/C (second compound 0.316 µM, first compound 10 µM) of the same compound?
Answer: 69.3%

Question: What about the viability, T/C (second compound 1 µM, first compound 0.0316 µM) of the same compound?
Answer: 108%

Question: And the viability, T/C (second compound 1 µM, first compound 0.1 µM)?
Answer: 112%

Question: And the viability, T/C (second compound 1 µM, first compound 0.316 µM)?
Answer: 117%

Question: And the viability, T/C (second compound 1 µM, first compound 1 µM)?
Answer: 91.2%

Question: What about the viability, T/C (second compound 1 µM, first compound 3.16 µM) of the same compound?
Answer: 76.4%

Question: What about the viability, T/C (second compound 1 µM, first compound 10 µM) of the same compound?
Answer: 68.4%

Question: And the viability, T/C (second compound 3.16 µM, first compound 0.0316 µM)?
Answer: 75.7%

Question: What about the viability, T/C (second compound 3.16 µM, first compound 0.1 µM) of the same compound?
Answer: 80.2%

Question: And the viability, T/C (second compound 3.16 µM, first compound 0.316 µM)?
Answer: 72%

Question: And the viability, T/C (second compound 3.16 µM, first compound 1 µM)?
Answer: 49.9%

Question: And the viability, T/C (second compound 3.16 µM, first compound 3.16 µM)?
Answer: 58.8%

Question: What about the viability, T/C (second compound 3.16 µM, first compound 10 µM) of the same compound?
Answer: 54.1%

Question: And the viability, T/C (second compound 10 µM, first compound 0.0316 µM)?
Answer: 41.1%

Question: What about the viability, T/C (second compound 10 µM, first compound 0.1 µM) of the same compound?
Answer: 40.5%

Question: What about the viability, T/C (second compound 10 µM, first compound 0.316 µM) of the same compound?
Answer: 50.8%

Question: What about the viability, T/C (second compound 10 µM, first compound 1 µM) of the same compound?
Answer: 42%

Question: What about the viability, T/C (second compound 10 µM, first compound 3.16 µM) of the same compound?
Answer: 40%

Question: What about the viability, T/C (second compound 10 µM, first compound 10 µM) of the same compound?
Answer: 34.4%
